Data set [1] has as its system Trichophyton mentagrophytes. Kind of data set: Antifungal activity in vitro, resazurin growth inhibition screen: Trichophyton mentagrophytes. The following applies: Trichophyton mentagrophytes B70554; for IC50: read-out: Inf. G pIC50 (converted). Format: cell-based. The method, boiled down: (§1)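 Top in-test concentration 64 μM, serial 2- or 4-fold steps. Inoculum 10^3 cfu per well, RPMI-MOPS medium. Resazurin read-out normalised to no-drug and no-fungus controls.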
On the technique in general: Resazurin is reduced to fluorescent resorufin, in cell work by metabolically active cells.

Another data set has as its system Microsporum canis. The experiment in a line: Antifungal activity in vitro, resazurin growth inhibition screen: Microsporum canis. In kind it is cell-based. To be noted: Microsporum canis B68128; for IC50: read-out: Inf. B pIC50 (converted). The method, boiled down: as §1
A further data set deals with Aspergillus fumigatus. The experiment in a line: Antifungal activity in vitro, resazurin growth inhibition screen: Aspergillus fumigatus. In kind it is cell-based. The following applies: Aspergillus fumigatus B42928; for IC50: read-out: Inf. E pIC50 (converted). The method, boiled down: as §1
A further data set deals with Trichophyton rubrum. The experiment in a line: Antifungal activity in vitro, resazurin growth inhibition screen: Trichophyton rubrum. Format: cell-based. To be noted: Trichophyton rubrum B68183; for IC50: read-out: Inf. C pIC50 (converted). The method, boiled down: as §1
The test system of the next data set is Sporothrix schenkii. The experiment in a line: Antifungal activity in vitro, resazurin growth inhibition screen: Sporothrix schenkii. To be noted: Sporothrix schenkii B62482; for IC50: read-out: Inf. A pIC50 (converted). In kind it is cell-based. The method, boiled down:
as §1

The subject of another data set is Cryptococcus neoformans. Kind of data set: Antifungal activity in vitro, resazurin growth inhibition screen: Cryptococcus neoformans. In kind it is cell-based. The following applies: Cryptococcus neoformans B66663; for IC50: read-out: Inf. F pIC50 (converted). The method, boiled down:
as §1

For another data set, the system named is Candida parapsilosis. Kind of data set: Antifungal activity in vitro, resazurin growth inhibition screen: Candida parapsilosis. Format: cell-based. To be noted: Candida parapsilosis B66126; for IC50: Lodderomyces parapsilosis, read-out: Inf. D pIC50 (converted). The method, boiled down:
as §1

The next data set relates to Rhizopus oryzae. Kind of data set: Antifungal activity in vitro, resazurin growth inhibition screen: Rhizopus oryzae. In kind it is cell-based. To be noted: Rhizopus oryzae IHEM5223. As to the method:
(§2) The standard susceptibility screen was performed in 96-well plates (U-bottom, Greiner Bio-One). Serial dilutions (2-fold or 4-fold) of 20 mM compound stock solutions were made in 100% DMSO, followed by an intermediate dilution step in water. These serial dilutions (10 μl) were then spotted onto test-plates that could be stored in the dark at 4° C. for a maximum period of 2 weeks. An adequate broad dose-range was included with 64 μM as the highest in-test concentration. […] The different fungal species/isolates (Table 3a) were cryopreserved and 1/1000 diluted in medium just prior to use. A standard inoculum of 200 μl containing 10^3 colony-forming unit (cfu) was then added to each well. A positive control (100% growth=fungal culture without antifungal) and a negative control (0% growth=RPMI-MOPS medium) were included on each plate.

A further data set deals with Scedosporium apiospermum. The experiment in a line: Antifungal activity in vitro, resazurin growth inhibition screen: Scedosporium apiospermum. To be noted: Scedosporium apiospermum IHEM3817. In kind it is cell-based. As to the method:
as §2

A further data set has as its system Rhizomucor miehei. The experiment in a line: Antifungal activity in vitro, resazurin growth inhibition screen: Rhizomucor miehei. Format: cell-based. To be noted: Rhizomucor miehei IHEM13391. As to the method:
as §2

In another data set the test system is Scedosporium prolificans. The experiment in a line: Antifungal activity in vitro, resazurin growth inhibition screen: Scedosporium prolificans. In kind it is cell-based. To be noted: Scedosporium prolificans IHEM21157. As to the method:
as §2

Some results are limits rather than exact numbers.

In the case of `CN1C(=O)C(C)(C)c2cc(C3=NCc4c(Cl)cccc4-n4cccc43)ccc21` [Compound 1, 5-(7-chloro-6H-pyrrolo[1,2-a][1,4]benzodiazepin-4-yl)-1,3-dihydro-1,3,3-trimethyl-2H-indol-2-one], the melting point (commonly the temperature, or range, at which the solid turns liquid) was 233.7 to 235.1 °C. Further, in data set [1], the IC50 was 26.3 µM. Besides, the IC50 in the data set on Microsporum canis was 9.33 µM. For the same compound, the IC50 in the data set on Aspergillus fumigatus is 2.24 µM. Also, in the data set on Trichophyton rubrum, the IC50 is 7.94 µM. In the data set with Sporothrix schenkii, the IC50 is over 64.6 µM. Further, the IC50 in the data set with Cryptococcus neoformans is 4.27 µM. Further, in the data set on Candida parapsilosis, the IC50 was over 64.6 µM.

Compound `Clc1ccc2c(c1Cl)CN=C(c1ccc3c(c1)CCC3)c1cccn1-2` [Compound 22, 7,8-dichloro-4-(2,3-dihydro-1H-inden-5-yl)-6H-pyrrolo[1,2-a][1,4]benzodiazepine] registered a melting point of 199.3 to 201.6 °C. The IC50 with Microsporum canis was 3.02 µM. For the same compound, the IC50 in the data set with Aspergillus fumigatus is 14.1 µM. Moreover, the IC50 in the data set on Trichophyton rubrum was 1 µM. Besides, the IC50 with Sporothrix schenkii is over 32.4 µM. Moreover, in the data set with Cryptococcus neoformans, the IC50 was 2.51 µM. Besides, in the data set on Candida parapsilosis, the IC50 is over 32.4 µM.

Consider `Clc1ccc(Cl)c2c1CN=C(c1ccc3c(c1)CCC3)c1cccn1-2` [Compound 24, 7,10-dichloro-4-(2,3-dihydro-1H-inden-5-yl)-6H-pyrrolo[1,2-a][1,4]benzodiazepine], for which the melting point fell in the range of 194 to 194.2 °C. Also, in [1], the IC50 was 6.03 µM. For the same compound, in the data set with Microsporum canis, the IC50 is 8.91 µM. Also, the IC50 in the data set on Aspergillus fumigatus was over 32.4 µM. In the data set on Trichophyton rubrum, the IC50 was 3.98 µM. For the same compound, the IC50 in the data set with Sporothrix schenkii is over 32.4 µM. Besides, the IC50 with Cryptococcus neoformans is over 32.4 µM. Also, the IC50 in the data set on Candida parapsilosis is over 32.4 µM.

On to `Clc1cccc2c1-n1cccc1C(c1ccc3c(c1)CCCO3)=NC2` [Compound 43, 10-chloro-4-(3,4-dihydro-2H-1-benzopyran-6-yl)-6H-pyrrolo[1,2-a][1,4]benzo-diazepine], for which the melting point was found to be 103.7 °C. Besides, the IC50 in [1] was 0.219 µM. Moreover, the IC50 in the data set with Microsporum canis is 0.158 µM. The IC50 in the data set on Aspergillus fumigatus is 0.141 µM. The IC50 with Trichophyton rubrum was 0.129 µM. Further, the IC50 with Sporothrix schenkii was 0.912 µM. Moreover, the IC50 with Cryptococcus neoformans was 0.209 µM. Further, the IC50 in the data set with Candida parapsilosis was 4.37 µM.

`O=C1CCc2ccc(C3=NCc4c(Cl)cccc4-n4cccc43)cc21` [Compound 55, 6-(7-chloro-6H-pyrrolo[1,2-a][1,4]benzodiazepin-4-yl)-2,3-dihydro-1H-inden-1-one] yielded a melting point of 214 to 217 °C. Moreover, the IC50 in [1] was 25.1 µM. Besides, the IC50 in the data set with Microsporum canis is 3.89 µM. The IC50 with Aspergillus fumigatus was over 64.6 µM. The IC50 in the data set with Trichophyton rubrum was 1.95 µM. Besides, in the data set with Sporothrix schenkii, the IC50 is over 64.6 µM. Besides, the IC50 in the data set with Cryptococcus neoformans is over 64.6 µM. The IC50 with Candida parapsilosis is over 64.6 µM.

As for `FC1(F)Oc2ccc(C3=NCc4c(Cl)cc(Cl)cc4-n4cccc43)cc2O1` [Compound 79, 7,9-dichloro-4-(2,2-difluoro-1,3-benzodioxol-5-yl)-6H-pyrrolo[1,2-a][1,4]benzo-diazepine], the “Inf. G pIC50” value in [1] is given as 5.79. In addition, the “Inf. J pIC50” value with Rhizopus oryzae is recorded as under 4.19. Moreover, the “Inf. B pIC50” value with Microsporum canis is on record as 6.28. For the same compound, the “Inf. H pIC50” value in the data set with Scedosporium apiospermum was 5.72. The “Inf. E pIC50” value with Aspergillus fumigatus is given as 5.71. For the same compound, the “Inf. C pIC50” value with Trichophyton rubrum was found to be 6.29. For the same compound, in the data set on Sporothrix schenkii, the “Inf. A pIC50” value was found to be 4.90. Besides, the “Inf. K pIC50” value in the data set with Rhizomucor miehei is on record as under 4.19. In addition, in the data set with Scedosporium prolificans, the “Inf. I pIC50” value is given as 5.98. Besides, in the data set with Cryptococcus neoformans, the “Inf. F pIC50” value came out at 5.60. The “Inf. D pIC50” value in the data set with Candida parapsilosis is given as 5.62.

`CN1CCc2cc(C3=NCc4c(Cl)cccc4-n4cccc43)ccc21` [Compound 83, 7-chloro-4-(2,3-dihydro-1-methyl-1H-indol-5-yl)-6H-pyrrolo[1,2-a][1,4]benzo-diazepine]: the “Inf. G pIC50” value in data set [1] was determined as 5.06. In addition, in the data set on Rhizopus oryzae, the “Inf. J pIC50” value is given as under 4.19. Also, the “Inf. B pIC50” value in the data set on Microsporum canis is 5.66. Further, the “Inf. H pIC50” value in the data set with Scedosporium apiospermum was 4.76. Also, the “Inf. E pIC50” value with Aspergillus fumigatus is on record as 5.89. The “Inf. C pIC50” value in the data set on Trichophyton rubrum worked out at 5.71. The “Inf. A pIC50” value with Sporothrix schenkii amounted to 5.14. For the same compound, the “Inf. K pIC50” value in the data set on Rhizomucor miehei was under 4.19. Besides, the “Inf. I pIC50” value in the data set on Scedosporium prolificans was 5.85. Also, in the data set on Cryptococcus neoformans, the “Inf. F pIC50” value came out at 5.57. Also, the “Inf. D pIC50” value in the data set on Candida parapsilosis is 5.28.

(Values after US9040524B2, “Antifungal 5,6-dihydro-4H-pyrrolo[1,2-a][1,4]-benzodiazepines and 6H-pyrrolo[1,2-a][1,4]benzodiazepines substituted with bicycle benzene derivatives” (JANSSEN PHARMACEUTICA NV, priority 2010, dated 2015).)
